Laboratory results from patent US20180036289A1 (Gilead Sciences, Inc., priority 2016, published 2018).

How the values were obtained:
[1] = system: TT; conditions: TT cell line; 120 hours incubation
Procedure: (§1) All cell lines were obtained from the American Type Culture Collection (ATCC) Manassas, Va. (US). Master and working cell banks (MCB and WCB) were prepared by subculturing in ATCC-recommended media and freezing protocols (www.atcc.org). Cell line stocks for the assays were prepared from the WCB. The MCB, WCBs and assay stocks were prepared within respectively 3, 6 and 9 passages of the ATCC vial.
(§2) Solid powders of reference compounds were weighed on a calibrated balance and dissolved in 100% DMSO. DMSO samples were stored at room temperature. At the day of the experiment, the compound stock was diluted in 3.16 fold steps in 100% DMSO to obtain a 9-point dilution series. This was further diluted 31.6 times in 20 mM sterile Hepes buffer pH 7.4. A volume of 5 μl was transferred to the cells to generate a test concentration range from 3.16×10^−5M to 3.16×10^−9 M in duplicate. The final DMSO concentration during incubation was […] in all wells.
(§3) An assay stock was thawed and diluted in its ATCC recommended medium and dispensed in a 384-well plate, depending on the cell line used, at a concentration of 200-3200 cells per well in 45 μl medium. For each used cell line the optimal cell density is used. The margins of the plate were filled with phosphate-buffered saline. Plated cells were incubated in a humidified atmosphere of 5% CO2 at 37° C. After 24 hours, 5 μl of compound dilution was added and plates were further incubated for another 120 hours. After 120 hours, 25 μl of ATPlite 1Step™ (PerkinElmer) solution was added to each well, and subsequently shaken for 2 minutes. After 10 minutes of incubation in the dark, the luminescence was recorded on an Envision multimode reader (PerkinElmer).
(§4) IC50s were calculated by non-linear regression using IDBS XLfit 5. The percentage growth after 120 h (%-growth) was calculated as follows: 100%×(luminescencet=120h/luminescenceuntreated,t=120h). This was fitted to the ^10log compound concentration (conc) by a 4-parameter logistics curve: %−growth=bottom+(top−bottom)/(1+10^(log IC50-conc)*hill)), where hill is the Hill-coefficient, and bottom and top the asymptotic minimum and maximum cell growth that the compound allows in that assay.

[2] = system: COLO 829; assay: Cell proliferation assay (ATPlite), drug with vs without cobicistat; type: cell-based; conditions: COLO 829 cell line; 120 hours incubation
In short: (§5)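 Cells seeded at 200-3200/well in ATCC-recommended medium, grown 24 h, then exposed to 9-point 3.16-fold dilutions (3.16×10^−5 to 3.16×10^−9 M, duplicate, 0.4% DMSO final) for 120 h at 37 °C, 5% CO2. ATPlite luminescence gave %-growth versus untreated; IC50 from 4-parameter logistic fit.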

[3] = system: Jurkat E6.1; assay: as above; type: cell-based; conditions: Jurkat E6.1 cell line; 120 hours incubation
In short: as §5

[4] = system: LS 174T; assay: as above; type: cell-based; conditions: LS 174T cell line; 120 hours incubation
In short: as §5

[5] = system: NCI-H460; assay: as above; type: cell-based; conditions: NCI-H460 cell line; 120 hours incubation
In short: as §5

[6] = system: RKO; assay: as above; type: cell-based; conditions: RKO cell line; 120 hours incubation
In short: as §5

[7] = system: cell lines tested; assay: Cell proliferation assay, summary across all cell lines and drugs; type: cell-based; conditions: comparison among the six primary drugs
Procedure: as §1, §2, §3, §4

SMILES | Fold change in IC50 (IC50 [Drug + Cobicistat]/IC50 [Drug]) [1] [fold] | Fold change in IC50 (IC50 [Drug + Cobicistat]/IC50 [Drug]) [2] [fold] | Fold change in IC50 (IC50 [Drug + Cobicistat]/IC50 [Drug]) [3] [fold] | Fold change in IC50 (IC50 [Drug + Cobicistat]/IC50 [Drug]) [4] [fold] | Fold change in IC50 (IC50 [Drug + Cobicistat]/IC50 [Drug]) [5] [fold] | Fold change in IC50 (IC50 [Drug + Cobicistat]/IC50 [Drug]) [6] [fold] | extent of boosting by cobicistat [7]
Cc1nc(Nc2ncc(C(=O)Nc3c(C)cccc3Cl)s2)cc(N2CCN(CCO)CC2)n1 [dasatinib] | 0.8 | – | – | – | – | – | –
CC(=O)O[C@@]12CO[C@@H]1C[C@H](O)[C@@]1(C)C(=O)[C@H](O)C3=C(C)[C@@H](OC(=O)[C@H](O)[C@@H](NC(=O)OC(C)(C)C)c4ccccc4)C[C@@](O)([C@@H](OC(=O)c4ccccc4)[C@H]21)C3(C)C [docetaxel] | 3.6 | 3.7 | 2.2 | 2.8 | 2.1 | 3.8 | boosted to the greatest extent
COc1cccc2c1C(=O)c1c(O)c3c(c(O)c1C2=O)C[C@@](O)(C(=O)CO)C[C@@H]3O[C@H]1C[C@H](N)[C@H](O)[C@H](C)O1 [doxorubicin] | 1.1 | 3.8 | 2.5 | 3.6 | 2.0 | 2.9 | –
CC(=O)O[C@H]1C(=O)[C@@]2(C)[C@H]([C@H](OC(=O)c3ccccc3)[C@]3(O)C[C@H](OC(=O)[C@H](O)[C@@H](NC(=O)c4ccccc4)c4ccccc4)C(C)=C1C3(C)C)[C@]1(OC(C)=O)CO[C@@H]1C[C@@H]2O [paclitaxel] | 3.0 | 4.1 | 2.5 | 1.8 | 2.0 | 3.3 | –
CC[C@]1(O)C[C@@H]2CN(CCc3c([nH]c4ccccc34)[C@@](C(=O)OC)(c3cc4c(cc3OC)N(C)[C@H]3[C@@](O)(C(=O)OC)[C@H](OC(C)=O)[C@]5(CC)C=CCN6CC[C@]43[C@@H]65)C2)C1 [vinblastine] | 8.7 | 6.3 | 2.5 | 3.4 | 3.4 | 3.6 | boosted to the greatest extent
CC[C@]1(O)C[C@H]2CN(CCc3c([nH]c4ccccc34)[C@@](C(=O)OC)(c3cc4c(cc3OC)N(C=O)[C@H]3[C@@](O)(C(=O)OC)[C@H](OC(C)=O)[C@]5(CC)C=CCN6CC[C@]43[C@@H]65)C2)C1 [vincristine] | 4.8 | 4.4 | 2.8 | 2.5 | 3.1 | 3.7 | boosted to the greatest extent
